In patent US20090304692A1, “TRIAZINE COMPOUNDS AS PI3 KINASE AND MTOR INHIBITORS” (Wyeth, priority 2008, published 2009) one finds IC50 data, which are given here for 16 compounds.

The test system of assay [1] is human prostate LNCap tumor cell line. Description: In vitro cell culture growth assay (MTS), LNCap. The following applies: Homo sapiens, LNCaP, 72 h, read-out: IC50 LNCap.
The target of assay [2] is PI3K-γ (Homo sapiens, UniProt P48736). Description: PI3K-gamma fluorescence polarization assay. The following applies: read-out: IC50 PI3Kγ.
Chain of PI3K-γ (P48736 whole entry, species assumed): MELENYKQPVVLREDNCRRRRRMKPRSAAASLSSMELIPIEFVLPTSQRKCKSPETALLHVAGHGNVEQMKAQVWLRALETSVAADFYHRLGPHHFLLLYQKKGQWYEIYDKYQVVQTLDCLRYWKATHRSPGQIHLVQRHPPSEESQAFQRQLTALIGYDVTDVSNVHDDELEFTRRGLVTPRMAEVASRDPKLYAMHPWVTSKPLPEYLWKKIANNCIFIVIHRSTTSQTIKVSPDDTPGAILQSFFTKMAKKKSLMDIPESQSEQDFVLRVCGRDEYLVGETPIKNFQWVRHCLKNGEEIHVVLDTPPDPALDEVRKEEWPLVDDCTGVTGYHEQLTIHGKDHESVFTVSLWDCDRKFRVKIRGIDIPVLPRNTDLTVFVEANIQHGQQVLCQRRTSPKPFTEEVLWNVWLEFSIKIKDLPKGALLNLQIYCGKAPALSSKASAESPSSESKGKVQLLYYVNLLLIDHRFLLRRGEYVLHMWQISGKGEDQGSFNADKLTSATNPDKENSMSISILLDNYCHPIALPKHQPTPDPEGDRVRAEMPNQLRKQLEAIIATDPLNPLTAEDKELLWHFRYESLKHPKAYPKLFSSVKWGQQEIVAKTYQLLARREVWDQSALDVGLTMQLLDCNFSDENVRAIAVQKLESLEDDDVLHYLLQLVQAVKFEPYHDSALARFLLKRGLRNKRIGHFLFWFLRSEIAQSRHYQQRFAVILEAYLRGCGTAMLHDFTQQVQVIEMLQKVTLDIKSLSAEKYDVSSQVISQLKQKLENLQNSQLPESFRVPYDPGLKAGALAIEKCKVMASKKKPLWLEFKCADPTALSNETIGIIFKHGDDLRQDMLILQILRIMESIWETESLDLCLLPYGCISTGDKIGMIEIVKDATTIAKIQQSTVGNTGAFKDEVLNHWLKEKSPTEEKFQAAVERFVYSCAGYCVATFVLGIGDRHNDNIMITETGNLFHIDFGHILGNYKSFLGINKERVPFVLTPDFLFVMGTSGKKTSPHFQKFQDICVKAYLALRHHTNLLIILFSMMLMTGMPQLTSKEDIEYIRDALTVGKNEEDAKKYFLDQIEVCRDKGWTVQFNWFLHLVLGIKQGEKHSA
Assay [3] has as its target Human mTOR (FLAG-TOR) (Homo sapiens, UniProt P42345). Put plainly: mTOR kinase assay (DELFIA format, purified enzyme). In kind it is biochemical. The following applies: read-out: IC50 mTOR.
The target in assay [4] is PI3K-α (Homo sapiens, UniProt P42336). Put plainly: PI3K-alpha fluorescence polarization assay. The conditions noted are these: read-out: IC50 PI3Kα. A general note: Fluorescence polarisation rises when a labelled molecule tumbles more slowly, as on binding a larger partner.
Chain of PI3K-α (P42336 whole entry, species assumed): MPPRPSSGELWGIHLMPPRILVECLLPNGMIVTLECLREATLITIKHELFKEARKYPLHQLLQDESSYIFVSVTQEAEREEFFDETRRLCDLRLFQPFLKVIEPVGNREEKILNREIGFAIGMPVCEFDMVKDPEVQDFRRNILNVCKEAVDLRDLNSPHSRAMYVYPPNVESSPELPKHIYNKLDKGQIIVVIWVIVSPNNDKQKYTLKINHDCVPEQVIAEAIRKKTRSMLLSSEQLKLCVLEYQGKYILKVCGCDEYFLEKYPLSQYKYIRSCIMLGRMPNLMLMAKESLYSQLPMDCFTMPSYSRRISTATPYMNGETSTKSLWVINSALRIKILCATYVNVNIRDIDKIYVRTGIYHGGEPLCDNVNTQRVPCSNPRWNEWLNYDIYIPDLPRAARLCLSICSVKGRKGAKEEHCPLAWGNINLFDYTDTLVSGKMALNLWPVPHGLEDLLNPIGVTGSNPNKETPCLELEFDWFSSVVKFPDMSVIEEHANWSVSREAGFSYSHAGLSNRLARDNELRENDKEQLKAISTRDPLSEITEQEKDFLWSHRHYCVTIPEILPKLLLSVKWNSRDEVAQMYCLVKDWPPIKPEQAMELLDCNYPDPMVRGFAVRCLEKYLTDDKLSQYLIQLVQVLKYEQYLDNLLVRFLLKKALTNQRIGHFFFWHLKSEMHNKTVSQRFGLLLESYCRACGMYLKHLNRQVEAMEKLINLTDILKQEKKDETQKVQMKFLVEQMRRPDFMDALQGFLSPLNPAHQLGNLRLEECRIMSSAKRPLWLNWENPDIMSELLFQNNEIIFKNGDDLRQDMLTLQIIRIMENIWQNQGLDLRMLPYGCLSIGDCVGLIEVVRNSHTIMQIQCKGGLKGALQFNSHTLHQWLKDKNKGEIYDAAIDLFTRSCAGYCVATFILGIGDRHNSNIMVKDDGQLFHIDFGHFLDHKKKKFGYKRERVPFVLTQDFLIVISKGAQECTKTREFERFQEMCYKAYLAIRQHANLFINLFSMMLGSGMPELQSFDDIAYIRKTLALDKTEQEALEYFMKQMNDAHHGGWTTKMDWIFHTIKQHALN
Chain of PI3K-α (P27986 whole entry partner, species assumed): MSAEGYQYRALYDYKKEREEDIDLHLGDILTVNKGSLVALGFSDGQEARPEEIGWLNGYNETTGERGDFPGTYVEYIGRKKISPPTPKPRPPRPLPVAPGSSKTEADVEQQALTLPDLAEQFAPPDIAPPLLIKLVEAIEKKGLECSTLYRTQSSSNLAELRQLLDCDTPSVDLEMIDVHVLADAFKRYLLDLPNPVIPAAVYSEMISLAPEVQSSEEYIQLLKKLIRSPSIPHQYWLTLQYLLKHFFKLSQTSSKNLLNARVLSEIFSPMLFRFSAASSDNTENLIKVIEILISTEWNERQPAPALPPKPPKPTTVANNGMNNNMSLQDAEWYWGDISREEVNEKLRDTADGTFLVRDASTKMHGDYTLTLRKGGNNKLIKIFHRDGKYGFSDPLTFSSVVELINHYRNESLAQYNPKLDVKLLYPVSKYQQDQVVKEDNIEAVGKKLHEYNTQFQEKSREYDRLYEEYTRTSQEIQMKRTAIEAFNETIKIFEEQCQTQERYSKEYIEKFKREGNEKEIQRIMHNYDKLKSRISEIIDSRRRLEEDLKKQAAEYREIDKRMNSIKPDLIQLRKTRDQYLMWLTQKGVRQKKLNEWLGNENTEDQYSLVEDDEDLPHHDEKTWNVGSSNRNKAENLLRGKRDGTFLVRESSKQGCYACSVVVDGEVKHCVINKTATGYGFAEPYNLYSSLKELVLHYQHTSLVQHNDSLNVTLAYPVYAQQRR

Chain of Human mTOR (FLAG-TOR) (P42345 1360-2549 limits assumed): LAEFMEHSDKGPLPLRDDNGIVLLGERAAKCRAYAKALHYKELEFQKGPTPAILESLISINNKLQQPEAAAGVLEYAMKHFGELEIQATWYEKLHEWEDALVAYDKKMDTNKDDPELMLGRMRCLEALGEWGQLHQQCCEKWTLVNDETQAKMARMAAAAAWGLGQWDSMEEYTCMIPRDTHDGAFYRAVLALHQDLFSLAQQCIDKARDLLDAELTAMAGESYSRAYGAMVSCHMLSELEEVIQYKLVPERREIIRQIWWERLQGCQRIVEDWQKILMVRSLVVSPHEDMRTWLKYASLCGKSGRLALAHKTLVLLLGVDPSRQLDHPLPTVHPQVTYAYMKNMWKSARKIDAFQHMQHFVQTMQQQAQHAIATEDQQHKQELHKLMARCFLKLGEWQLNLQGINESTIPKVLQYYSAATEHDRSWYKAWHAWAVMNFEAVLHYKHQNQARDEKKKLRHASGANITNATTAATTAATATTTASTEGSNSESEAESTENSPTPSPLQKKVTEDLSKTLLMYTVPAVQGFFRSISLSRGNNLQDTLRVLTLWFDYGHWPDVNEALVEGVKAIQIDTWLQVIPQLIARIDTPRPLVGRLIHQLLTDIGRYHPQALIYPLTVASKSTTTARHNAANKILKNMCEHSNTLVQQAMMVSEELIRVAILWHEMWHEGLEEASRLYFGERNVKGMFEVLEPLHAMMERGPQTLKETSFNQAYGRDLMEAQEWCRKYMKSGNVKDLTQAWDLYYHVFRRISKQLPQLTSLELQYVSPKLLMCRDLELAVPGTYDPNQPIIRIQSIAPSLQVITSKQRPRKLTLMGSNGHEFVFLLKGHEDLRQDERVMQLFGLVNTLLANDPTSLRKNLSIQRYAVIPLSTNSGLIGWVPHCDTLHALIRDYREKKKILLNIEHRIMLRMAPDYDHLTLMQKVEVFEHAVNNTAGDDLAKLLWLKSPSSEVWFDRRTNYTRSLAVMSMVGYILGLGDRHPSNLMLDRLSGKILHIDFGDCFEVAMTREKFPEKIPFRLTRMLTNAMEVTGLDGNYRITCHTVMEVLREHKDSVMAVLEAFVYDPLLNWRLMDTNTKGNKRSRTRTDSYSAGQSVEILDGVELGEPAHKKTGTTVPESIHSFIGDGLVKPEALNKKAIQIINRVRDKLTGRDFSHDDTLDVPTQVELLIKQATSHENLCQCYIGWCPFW

For orientation: IC50 means the point on the concentration scale where inhibition reaches its midpoint. Regarding `CC(C)Nc1nc(-c2ccc(NC(=O)Nc3ccc(OCCN(C)C)cc3)cc2)nc(N2C3CCC2COC3)n1` [Example 385, 1-(4-(4-(3-oxa-8-azabicyclo[3.2.1]octan-8-yl)-6-(isopropylamino)-1,3,5-triazin-2-yl)phenyl)-3-(4-(2-(dimethylamino)ethoxy)phenyl)urea], the half-maximal inhibitory concentration (IC50) came out at 70 nM in assay [1], 4690 nM in assay [2], 5.7 nM in assay [3] and 3400 nM in assay [4].

For the compound `CC(C)Nc1nc(-c2ccc(NC(=O)Nc3ccc(N4CCNCC4)cc3)cc2)nc(N2C3CCC2COC3)n1` [Example 387, 1-(4-(4-(3-oxa-8-azabicyclo[3.2.1]octan-8-yl)-6-(isopropylamino)-1,3,5-triazin-2-yl)phenyl)-3-(4-(piperazin-1-yl)phenyl)urea], the IC50 in assay [1] was found to be 70 nM; in assay [2], 2860 nM; in assay [3] it was 3.2 nM; in assay [4] it was 3420 nM.

In the case of `CC(C)Nc1nc(-c2ccc(NC(=O)Nc3ccc(N4CCC(N(C)C)CC4)cc3)cc2)nc(N2C3CCC2COC3)n1` [Example 388, 1-(4-(4-(3-oxa-8-azabicyclo[3.2.1]octan-8-yl)-6-(isopropylamino)-1,3,5-triazin-2-yl)phenyl)-3-(4-(4-(dimethylamino)piperidin-1-yl)phenyl)urea], the 50% inhibitory concentration (IC50) in assay [1] turned out to be 110 nM; in assay [2] it was 4280 nM; in assay [3] it was 4.8 nM; in assay [4] it was 3450 nM.

For `CC(C)N(C)c1nc(-c2ccc(NC(=O)Nc3ccc(CN(C)C)cc3)cc2)nc(N2C3CCC2COC3)n1` [Example 390, 1-(4-(4-(3-oxa-8-azabicyclo[3.2.1]octan-8-yl)-6-(isopropyl(methyl)amino)-1,3,5-triazin-2-yl)phenyl)-3-(4-((dimethylamino)methyl)phenyl)urea], the IC50 in assay [1] was 650 nM; in assay [2], 2350 nM; in assay [3], 12 nM; in assay [4] it was 2470 nM.

As for `CC(C)N(C)c1nc(-c2ccc(NC(=O)Nc3ccc(OCCN(C)C)cc3)cc2)nc(N2C3CCC2COC3)n1` [Example 391, 1-(4-(4-(3-oxa-8-azabicyclo[3.2.1]octan-8-yl)-6-(isopropyl(methyl)amino)-1,3,5-triazin-2-yl)phenyl)-3-(4-(2-(dimethylamino)ethoxy)phenyl)urea], the half-maximal inhibitory concentration (IC50) in assay [1] was determined as 300 nM; in assay [2] it was 4000 nM; in assay [3], 9.6 nM; in assay [4], 2400 nM.

In the case of `O=C(Nc1ccc(-c2nc(N3CCSCC3)nc(N3C4CCC3COC4)n2)cc1)Nc1cccnc1` [Example 392, 1-(4-(4-(3-oxa-8-azabicyclo[3.2.1]octan-8-yl)-6-thiomorpholino-1,3,5-triazin-2-yl)phenyl)-3-(pyridin-3-yl)urea], the IC50 in assay [1] was 480 nM; in assay [2], 2780 nM; in assay [3], 5.5 nM; in assay [4], 1180 nM.

Take `O=C(Nc1ccncc1)Nc1ccc(-c2nc(N3CCSCC3)nc(N3C4CCC3COC4)n2)cc1` [Example 393, 1-(4-(4-(3-oxa-8-azabicyclo[3.2.1]octan-8-yl)-6-thiomorpholino-1,3,5-triazin-2-yl)phenyl)-3-(pyridin-4-yl)urea]: the concentration for half-maximal inhibition (IC50) in assay [1] was 580 nM; in assay [2], 1540 nM; in assay [3], 3.6 nM; in assay [4], 444 nM.

On to `CN(C)Cc1ccc(NC(=O)Nc2ccc(-c3nc(N4CCSCC4)nc(N4C5CCC4COC5)n3)cc2)cc1` [Example 395, 1-(4-(4-(3-oxa-8-azabicyclo[3.2.1]octan-8-yl)-6-thiomorpholino-1,3,5-triazin-2-yl)phenyl)-3-(4-((dimethylamino)methyl)phenyl)urea], for which the concentration for half-maximal inhibition (IC50) was 590 nM in assay [1], 2220 nM in assay [2], 14 nM in assay [3] and 584 nM in assay [4].

On to `C[C@@H]1COCCN1c1nc(-c2ccc(NC(=O)Nc3cccnc3)cc2)nc(N2CCOC[C@H]2C)n1` [Example 398, 1-(4-(4,6-bis((R)-3-methylmorpholino)-1,3,5-triazin-2-yl)phenyl)-3-(pyridin-3-yl)urea], for which the IC50 in assay [1] stood at 12 nM; in assay [2], 3910 nM; in assay [3], 0.21 nM; in assay [4] it was 644 nM.

On to `C[C@@H]1COCCN1c1nc(-c2ccc(NC(=O)Nc3ccc(N4CCN(C)CC4)cc3)cc2)nc(N2CCOC[C@H]2C)n1` [Example 399, 1-(4-(4,6-bis((R)-3-methylmorpholino)-1,3,5-triazin-2-yl)phenyl)-3-(4-(4-methylpiperazin-1-yl)phenyl)urea], for which the half-inhibitory concentration (IC50) in assay [1] was found to be 3 nM; in assay [2], 1690 nM; in assay [3] it was 1.1 nM; in assay [4] it was 330 nM.

For the compound `C[C@@H]1COCCN1c1nc(-c2ccc(NC(=O)Nc3ccc(CN(C)C)cc3)cc2)nc(N2CCOC[C@H]2C)n1` [Example 401, 1-(4-(4,6-bis((R)-3-methylmorpholino)-1,3,5-triazin-2-yl)phenyl)-3-(4-((dimethylamino)methyl)phenyl)urea], the 50% inhibitory concentration (IC50) amounted to 21 nM in assay [1], 3250 nM in assay [2], 2 nM in assay [3] and 413 nM in assay [4].

For the compound `C[C@@H]1COCCN1c1nc(-c2ccc(NC(=O)Nc3ccc(OCCN(C)C)cc3)cc2)nc(N2CCOC[C@H]2C)n1` [Example 402, 1-(4-(4,6-bis((R)-3-methylmorpholino)-1,3,5-triazin-2-yl)phenyl)-3-(4-(2-(dimethylamino)ethoxy)phenyl)urea], the IC50 in assay [1] was determined as 7 nM; in assay [2] it was 3640 nM; in assay [3], 1.8 nM; in assay [4], 543 nM.

With `C[C@@H]1COCCN1c1nc(-c2ccc(NC(=O)Nc3ccc(OCCN4CCCC4)cc3)cc2)nc(N2CCOC[C@H]2C)n1` [Example 403, 1-(4-(4,6-bis((R)-3-methylmorpholino)-1,3,5-triazin-2-yl)phenyl)-3-(4-(2-(pyrrolidin-1-yl)ethoxy)phenyl)urea], the IC50 in assay [1] turned out to be 8 nM; in assay [2], 2380 nM; in assay [3] it was 0.75 nM; in assay [4], 314 nM.

In the case of `O=C(Nc1ccncc1)Nc1ccc(-c2nc(C3=CCOCC3)nc(N3C4CCC3COC4)n2)cc1` [Example 404, 1-(4-(4-(3-oxa-8-azabicyclo[3.2.1]octan-8-yl)-6-(3,6-dihydro-2H-pyran-4-yl)-1,3,5-triazin-2-yl)phenyl)-3-(pyridin-4-yl)urea], the IC50 was determined as 60 nM in assay [1], 433 nM in assay [2], 0.69 nM in assay [3] and 63 nM in assay [4].

Regarding `O=C(Nc1ccncc1)Nc1ccc(-c2nc(C3CCOCC3)nc(N3C4CCC3COC4)n2)cc1` [Example 406, 1-(4-(4-(3-oxa-8-azabicyclo[3.2.1]octan-8-yl)-6-(tetrahydro-2H-pyran-4-yl)-1,3,5-triazin-2-yl)phenyl)-3-(pyridin-4-yl)urea], the IC50 in assay [1] was 2.4 nM; in assay [2] it was 1880 nM; in assay [3], 0.38 nM; in assay [4], 478 nM.

`CN(C)Cc1ccc(NC(=O)Nc2ccc(-c3nc(C4CCOCC4)nc(N4C5CCC4COC5)n3)cc2)cc1` [Example 409, 1-(4-(4-(3-oxa-8-azabicyclo[3.2.1]octan-8-yl)-6-(tetrahydro-2H-pyran-4-yl)-1,3,5-triazin-2-yl)phenyl)-3-(4-((dimethylamino)methyl)phenyl)urea]: the IC50 in assay [1] amounted to 50 nM; in assay [2], 4490 nM; in assay [3], 1.5 nM; in assay [4], 856 nM.
